In patent publication US7510836B2, “Alpha arteether resistance domain” (priority 2003, dated 2009):

Assays:
E. coli DH5α = assay: Phenotype of strain (resistance or sensitivity); type: cell-based, Escherichia coli; parameters: key to Phenotype: R: resistance; S: sensitivity; settings: for Sensitivity or resistance of the strain (words): E.coli DH5a (gyrA 96; Asp87Asn)
Protocol: (§1) As a result of this mutation, the said strain is also resistant to a drug called nalidixic acid.
(§2) To ascertain the involvement of gyrA mutation, another E.coli strain NK 5819 which is also GyrA″ and nalidixic acid resistant was tested for arteether sensitivity. As expected, strain NK5819 was also sensitive only to a-isomer of arteether. […] The assays for arteether sensitivity was performed by the standard single disk diffusion method (Bauer et al, 1966). As a next step, we isolated gyrA mutants of E.coli strain CA 8000, which is otherwise Gyr+ and nalidixic acid sensitive. The gyrA mutants of CA8000 were isolated as nalidixic acid resistant colonies (20 ug/ml), after mutagenic treatment with NTG ([…]). The isolated CA8000 gyrA mutants were also sensitive only to a isomer of arteether. […] To define precisely the involvement of gyr genes only in the a-arteether sensitivity, we utilised two recombinant clones (pMK 90 and pMK47 containing functional gyr A and gyrB genes respectively) in trans-complementation assays. For this purpose, we mobilized the plasmid clones into the E.coli gyr mutant strains. The resulting transformants were now nalidixic acid sensitive and a-arteether resistant. This constituted the direct evidence supporting our observation that DNA gyrase enzyme alone is involved in conferring a-arteether sensitivity to E.coli strain. […] DNA gyrase enzyme is essential for the bacterial growth. This enzyme transiently breaks the DNA strands and introduces negative superhelical turns in an ATP-dependent process. The E.coli DNA gyrase enzyme is a tetramer with two subunits A and B. These two subunits are nalidixic acid and coumermycin sensitive respectively (U.S. Pat. No. 6,127,405 and a co-pending patent).
(§3) The strains of E coli of the investigation, their phenotypes in terms of a-arteether (resistance or sensitivity, superscript R or S) or antibiotic resistance or sensitivity, change in nucleotide position of the gyrase A gene leading to the phenotype, corresponding amino acid change in the protein and the position of amino acid change are being described. Always the phenotype a-arteether resistance is accompanied with quinolone or fluoroquinolone sensitivity and vice versa.

E. coli ET8000 = assay: Phenotype of strain (resistance or sensitivity); type: cell-based, Escherichia coli; parameters: key: R: resistance; S: sensitivity; settings: gyrA GAC-AAC(259), Asp-Asn 87
Excerpt: as §3

E. coli NK5819 = assay: Phenotype of strain (resistance or sensitivity); type: cell-based, Escherichia coli; parameters: key to Phenotype: R: resistance; S: sensitivity
Protocol: as §2, §3

E. coli CA8001 = assay: Phenotype of strain (resistance or sensitivity); type: cell-based, Escherichia coli; parameters: key: R: resistance; S: sensitivity; settings: gyrA GGT-TGT(241), Gly-Cys 81
Excerpt: (§4) In order to develop an arteether resistant mutants from an arteether sensitive strains a reverse strategy was applied. Quinoline/fluoroquinolone (Q/FQs) resistant strains were developed spontaneously i.e. screening overnight log phase culture of the Quinolone/fluoroquinolone sensitive i.e. arteether resistant strain (E coli CA 8000) on the poison agar plate of the Q/FQs. The Q/FQ resistant mutants which appeared on the poison agar plates were first purified through single colony purification and then checked for their arteether sensitivity. These arteether sensitive mutants on the contrary when checked for their Q/Fqs resistance they show different level of Q/FQs resistance.
as §3

E. coli CA8002 = assay: Phenotype of strain (resistance or sensitivity); type: cell-based, Escherichia coli; parameters: key: R: resistance; S: sensitivity; settings: gyrA GGT-TGT(241), Gly-Cys 81
Excerpt: as §4, §3

E. coli CA8003 = assay: Phenotype of strain (resistance or sensitivity); type: cell-based, Escherichia coli; parameters: key: R: resistance; S: sensitivity; settings: gyrA GAC-GGC(260), Asp-Gly 87
Excerpt: as §4, §3

E. coli CA8005 = assay: Phenotype of strain (resistance or sensitivity); type: cell-based, Escherichia coli; parameters: key: R: resistance; S: sensitivity; settings: gyrA GAC-GGC(260), Asp-Gly 87
Excerpt: as §4, §3

E. coli CA8006 = assay: Phenotype of strain (resistance or sensitivity); type: cell-based, Escherichia coli; parameters: key: R: resistance; S: sensitivity; settings: gyrA TCG-TTG(248), Ser-Leu 83
Excerpt: as §4, §3

E. coli CA8007 = assay: Phenotype of strain (resistance or sensitivity); type: cell-based, Escherichia coli; parameters: key: R: resistance; S: sensitivity; settings: gyrA TCG-TTG(248), Ser-Leu 83
Excerpt: as §4, §3

E. coli CA8009 = assay: Phenotype of strain (resistance or sensitivity); type: cell-based, Escherichia coli; parameters: key: R: resistance; S: sensitivity; settings: gyrA TCG-TTG(248), Ser-Leu 83
Excerpt: as §4, §3

E. coli CA8010 = assay: Phenotype of strain (resistance or sensitivity); type: cell-based, Escherichia coli; parameters: key: R: resistance; S: sensitivity; settings: gyrA TCG-TTG(248), Ser-Leu 83
Excerpt: as §4, §3

E. coli CA8012 = assay: Phenotype of strain (resistance or sensitivity); type: cell-based, Escherichia coli; parameters: key: R: resistance; S: sensitivity; settings: gyrA GGT-GAT(242), Gly-Asp 81
Excerpt: as §4, §3

[1] = test system: E. coli mutant strain AR 9 CA8014; assay: Phenotype of revertant (resistance or sensitivity); type: cell-based, Escherichia coli; parameters: key: R: resistance; S: sensitivity; settings: gyrA AAC-GAC(259), Asn-Asp 87
Excerpt: as §3
(§5) The commercially available strain E. coli DH5[…] (Stratagene, USA) is sensitive to […]-arteether but resistant to quinolone/fluoroquinolone due to a mutation at 87th aminoacid position of the gyr A protein (Aspartic acid of wild type is changed to Aspargine) with corresponding change in the codon GAC to AAC. This strain was used to screen […]-arteether resistant mutations. The observation was startling as the […]-arteether resistant mutants are the exact reversion at the 87th position of the aminoacid of gyrase A subunit i.e. Aspargine changed to aspartic acid, with corresponding change in the codon AAC to GAC.

[2] = test system: E. coli mutant strain Rev 4; assay: Phenotype of revertant (resistance or sensitivity); type: cell-based, Escherichia coli; parameters: key: R: resistance; S: sensitivity; settings: gyrA GAT-GGT(242), Asp-Gly 81
Excerpt: as §3, §5

[3] = test system: E. coli mutant strain Rev 5; assay: Phenotype of revertant (resistance or sensitivity); type: cell-based, Escherichia coli; parameters: key: R: resistance; S: sensitivity; settings: gyrA GAT-GGT(242), Asp-Gly 81
Excerpt: as §3, §5

[4] = test system: E. coli mutant strain Rev 6; assay: Phenotype of revertant (resistance or sensitivity); type: cell-based, Escherichia coli; parameters: key: R: resistance; S: sensitivity; settings: gyrA GAT-GGT(242), Asp-Gly 81
Excerpt: as §3, §5

[5] = test system: E. coli mutant strain Rev. 1; assay: Phenotype of revertant (resistance or sensitivity); type: cell-based, Escherichia coli; parameters: key: R: resistance; S: sensitivity; settings: gyrA GAT-GGT(242), Asp-Gly 81
Excerpt: as §3, §5

[6] = test system: E. coli mutant strain Rev. 2; assay: Phenotype of revertant (resistance or sensitivity); type: cell-based, Escherichia coli; parameters: key: R: resistance; S: sensitivity; settings: gyrA GAT-GGT(242), Asp-Gly 81
Excerpt: as §3, §5

[7] = test system: E. coli mutant strain Rev. 3; assay: Phenotype of revertant (resistance or sensitivity); type: cell-based, Escherichia coli; parameters: key: R: resistance; S: sensitivity; settings: gyrA GAT-GGT(242), Asp-Gly 81
Excerpt: as §3, §5

[8] = test system: E.coli strain MTCC 482 (GyrB, defective in DNA gyrase B subunit); assay: Arteether sensitivity, single disk diffusion; type: cell-based, Escherichia coli; settings: E.coli MTCC 482 (gyrB)
Protocol: as §2, with “This enzyme transiently breaks the DNA strands and introduces negative superhelical turns in an ATP-dependent process. The E.coli DNA gyrase enzyme is a tetramer with two subunits A and B. These two subunits are nalidixic acid and coumermycin sensitive respectively (U.S. Pat. No. 6,127,405 and a co-pending patent).” left out

[9] = test system: gyrA mutants of E.coli strain CA 8000 (nalidixic acid resistant colonies after NTG); assay: Arteether sensitivity, single disk diffusion; type: cell-based, Escherichia coli; settings: isolated CA8000 gyrA mutants
Protocol: as §2, with “This enzyme transiently breaks the DNA strands and introduces negative superhelical turns in an ATP-dependent process. The E.coli DNA gyrase enzyme is a tetramer with two subunits A and B. These two subunits are nalidixic acid and coumermycin sensitive respectively (U.S. Pat. No. 6,127,405 and a co-pending patent).” left out

[10] = test system: E.coli gyr mutant strains transformed with pMK 90 and pMK47 (functional gyr A and gyrB genes); assay: Trans-complementation assay; type: cell-based, Escherichia coli; settings: gyr mutant strains carrying pMK 90 / pMK47
Protocol: as §2, with “This enzyme transiently breaks the DNA strands and introduces negative superhelical turns in an ATP-dependent process. The E.coli DNA gyrase enzyme is a tetramer with two subunits A and B. These two subunits are nalidixic acid and coumermycin sensitive respectively (U.S. Pat. No. 6,127,405 and a co-pending patent).” left out

[11] = test system: E.coli strains which do not carry gyr mutation (wild type strains); assay: Arteether sensitivity of strains without gyr mutation; type: cell-based, Escherichia coli
Protocol: as §1
To ascertain the involvement of gyrA mutation, another E.coli strain NK 5819 which is also GyrA″ and nalidixic acid resistant was tested for arteether sensitivity. As expected, strain NK5819 was also sensitive only to a-isomer of arteether. […] The assays for arteether sensitivity was performed by the standard single disk diffusion method (Bauer et al, 1966). As a next step, we isolated gyrA mutants of E.coli strain CA 8000, which is otherwise Gyr+ and nalidixic acid sensitive. The gyrA mutants of CA8000 were isolated as nalidixic acid resistant colonies (20 ug/ml), after mutagenic treatment with NTG ([…]). The isolated CA8000 gyrA mutants were also sensitive only to a isomer of arteether. […] To define precisely the involvement of gyr genes only in the a-arteether sensitivity, we utilised two recombinant clones (pMK 90 and pMK47 containing functional gyr A and gyrB genes respectively) in trans-complementation assays. For this purpose, we mobilized the plasmid clones into the E.coli gyr mutant strains. The resulting transformants were now nalidixic acid sensitive and a-arteether resistant. This constituted the direct evidence supporting our observation that DNA gyrase enzyme alone is involved in conferring a-arteether sensitivity to E.coli strain. […]

[12] = test system: E.coli strains which do not carry gyr mutation (wild type strains); settings: U.S. Pat. No. 6,127,405; cited from earlier work
[13] = test system: gyr mutant strains of E.coli; settings: U.S. Pat. No. 6,127,405; cited from earlier work

CCO[C@@H]1O[C@@H]2O[C@]3(C)CC[C@H]4[C@H](C)CC[C@@H]([C@H]1C)[C@@]24OO3 [a-arteether, α-arteether]
Phenotype (E. coli DH5α; DH5α, gyrA GAC-AAC(259), Asp-Asn 87): S
Sensitivity or resistance of the strain (words) (E. coli DH5α; listed as a isomer of arteether): able to inhibit the growth
Sensitivity or resistance of the strain (words) (E. coli DH5α; listed as α-arteether): sensitive
Sensitivity or resistance of the strain (words) (E. coli DH5α; listed as […]-arteether): sensitive
Phenotype (E. coli ET8000): S
Sensitivity or resistance of the strain (words) (E. coli NK5819; E.coli NK 5819 (GyrA mutant)): sensitive
Phenotype (E. coli NK5819; NK5819, gyrA GAC-TAC(259), Asp-Gly 87): S
Phenotype (E. coli CA8001): S
Phenotype (E. coli CA8002): S
Phenotype (E. coli CA8003): S
Phenotype (E. coli CA8005): S
Phenotype (E. coli CA8006): S
Phenotype (E. coli CA8007): S
Phenotype (E. coli CA8009): S
Phenotype (E. coli CA8010): S
Phenotype (E. coli CA8012): S
Phenotype [1]: R
Phenotype [2]: R
Phenotype [3]: R
Phenotype [4]: R
Phenotype [5]: R
Phenotype [6]: R
Phenotype [7]: R
Arteether sensitivity [8]: susceptible
Arteether sensitivity [9]: sensitive
Sensitivity or resistance of transformants [10]: resistant
Sensitivity or resistance [11]: invariably resistant
Inhibitory activity [12]: ineffective
Inhibitory activity [13]: inhibitory
